Tests used:
[1] = Solubility in water; assay type: physicochemical
Description: This poor solubility in water makes it difficult to deliver the compound and related compounds of formula (1) and has limited clinical development, thus creating a need for the development of a formulation suitable for clinical use. The present invention was developed with a goal of obtaining a suitable formulation that can provide a stable suspension of the compound at a concentration of about 100 mg/mL or a dried formulation that could be either delivered orally or used to prepare a stable suspension. While the invention is described and exemplified primarily with respect to 1-(3,5-dimethoxyphenyl)-4-[(6-fluoro-2-methoxyquinoxalin-3-yl)aminocarbonyl]piperazine, it is to be understood that the invention is applicable to other compounds of formula (1).
1-(3,5-Dimethoxyphenyl)-4-[(6-fluoro-2-methoxyquinoxalin-3-yl)aminocarbonyl]piperazine has a very poor solubility in water, less than 0.1 μg/ml, and its solubility was tested in several co-solvents. […] Thus, these classical formulations are not useful in clinical use, although they could be used in some limited purpose in pre-clinical studies.
Particles were crystalline and irregularly shaped. FIG. 1 illustrates particles of 1-(3,5-Dimethoxyphenyl)-4-[(6-fluoro-2-methoxyquinoxalin-3-yl)aminocarbonyl]piperazine at 400× Magnification. […]

[2] = Particle size of unmilled API by laser diffraction; assay type: physicochemical; conditions: dispersed in aqueous solution of Aerosol OT
Text: (§1) API morphology can be characterized by optical microscopy (e.g., Olympus BX51 microscope with Clemex JS-2000 controller). Differential scanning calorimetry (e.g., Mettler-Toledo DSC 1) and thermogravimetric analysis (e.g., Mettler-Toledo TGA/DSC 1) can be used to measure the thermal characteristics of the material. Particle size measurements can be made throughout by, for example, laser diffraction (e.g. Horiba LA-950V2), by dispersing the material, either in water, when surfactant is present in the test sample or in a dilute solution of poloxamer when no other dispersant was present.
Based on chemical structure, the refractive index of 1-(3,5-dimethoxyphenyl)-4-[(6-fluoro-2-methoxyquinoxalin-3-yl)aminocarbonyl]piperazine was predicted to be 1.637. For particle size measurements, the imaginary component of the refractive index, or the i-value (a unitless factor used by the laser diffraction algorithm to account for the absorption of light by the particles) was determined to be 0.1. Unmilled 1-(3,5-Dimethoxyphenyl)-4-[(6-fluoro-2-methoxyquinoxalin-3-yl)aminocarbonyl]piperazine dispersed readily in an aqueous solution of (Aerosol OT). The median particle size (D50) measured at 13 μm.

[3] = Thermal analysis (TGA / DSC); assay type: physicochemical
Text: as §1
Mass loss after 220° C. may be attributable to thermal degradation.
Differential scanning calorimetry (see FIG. 4) confirmed the endotherm related to the initial mass loss at 108° C.

[4] = Oral bioavailability in animal model studies; assay type: in vivo
Text: Because of the poor aqueous solubility of 1-(3,5-dimethoxyphenyl)-4-[(6-fluoro-2-methoxyquinoxalin-3-yl)aminocarbonyl]piperazine, production of a submicron suspension needed to be developed as a viable oral delivery option to avoid the need to administer large volumes of a 1-(3,5-dimethoxyphenyl)-4-[(6-fluoro-2-methoxyquinoxalin-3-yl)aminocarbonyl]piperazine solution to achieve the intended dosage levels.

COc1cc(OC)cc(N2CCN(C(=O)Nc3nc4cc(F)ccc4nc3OC)CC2)c1 [Compound A, 1-(3,5-Dimethoxyphenyl)-4-[(6-fluoro-2-methoxyquinoxalin-3-yl)aminocarbonyl]piperazine]
solubility [1]: < 0.1 µg/mL
solubility in water [1]: practically insoluble
median particle size (D50) [2]: 13 μm
thermal stability ([3]; TGA and DSC data): thermally stable
no indication of decomposition until ([3]; differential scanning calorimetry): 223 °C
oral bioavailability [4]: good oral bioavailability

From patent publication US10052321B2, “Nanoparticulate compositions and formulations of piperazine compounds” (Rexahn Pharmaceuticals, Inc., priority 2013, dated 2018)
